Like-named read-outs stand apart in the source and are kept apart here.
Key:
Experiment in all cases: biochemical
Parameters in all cases: KINOMEscan scanMAX competition binding, DNA-tagged kinases, qPCR read-out, percent control at 300 nM
DDR2 = molecular target: T1, DDR2 (Homo sapiens, UniProt Q16832)
T1 sequence (Q16832 1-855): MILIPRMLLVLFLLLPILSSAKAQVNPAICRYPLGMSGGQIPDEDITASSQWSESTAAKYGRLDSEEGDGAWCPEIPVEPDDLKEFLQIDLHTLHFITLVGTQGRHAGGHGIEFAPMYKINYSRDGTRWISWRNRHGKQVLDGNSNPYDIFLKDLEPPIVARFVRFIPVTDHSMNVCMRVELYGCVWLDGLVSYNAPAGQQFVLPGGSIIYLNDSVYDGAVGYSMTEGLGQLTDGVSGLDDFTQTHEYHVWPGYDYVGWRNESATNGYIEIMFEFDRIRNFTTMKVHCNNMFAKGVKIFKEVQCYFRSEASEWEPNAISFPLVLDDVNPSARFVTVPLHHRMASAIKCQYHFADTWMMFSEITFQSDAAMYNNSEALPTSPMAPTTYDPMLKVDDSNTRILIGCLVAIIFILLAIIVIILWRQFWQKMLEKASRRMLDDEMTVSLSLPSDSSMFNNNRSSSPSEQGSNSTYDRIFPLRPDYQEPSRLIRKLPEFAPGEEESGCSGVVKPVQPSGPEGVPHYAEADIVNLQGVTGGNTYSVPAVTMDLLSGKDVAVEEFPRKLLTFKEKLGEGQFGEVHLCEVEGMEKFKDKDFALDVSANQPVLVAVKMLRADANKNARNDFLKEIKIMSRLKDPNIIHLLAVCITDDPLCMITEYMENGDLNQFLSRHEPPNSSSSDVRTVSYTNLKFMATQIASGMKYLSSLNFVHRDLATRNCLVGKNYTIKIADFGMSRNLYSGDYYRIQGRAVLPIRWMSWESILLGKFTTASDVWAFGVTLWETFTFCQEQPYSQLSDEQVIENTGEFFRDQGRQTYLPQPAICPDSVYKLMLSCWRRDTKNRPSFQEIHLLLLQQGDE

[1] = molecular target: T2, JAK1(JH1domain-catalytic) (Homo sapiens, UniProt P23458)
T2 construct: JH1domain-catalytic
T2 sequence (P23458 whole entry): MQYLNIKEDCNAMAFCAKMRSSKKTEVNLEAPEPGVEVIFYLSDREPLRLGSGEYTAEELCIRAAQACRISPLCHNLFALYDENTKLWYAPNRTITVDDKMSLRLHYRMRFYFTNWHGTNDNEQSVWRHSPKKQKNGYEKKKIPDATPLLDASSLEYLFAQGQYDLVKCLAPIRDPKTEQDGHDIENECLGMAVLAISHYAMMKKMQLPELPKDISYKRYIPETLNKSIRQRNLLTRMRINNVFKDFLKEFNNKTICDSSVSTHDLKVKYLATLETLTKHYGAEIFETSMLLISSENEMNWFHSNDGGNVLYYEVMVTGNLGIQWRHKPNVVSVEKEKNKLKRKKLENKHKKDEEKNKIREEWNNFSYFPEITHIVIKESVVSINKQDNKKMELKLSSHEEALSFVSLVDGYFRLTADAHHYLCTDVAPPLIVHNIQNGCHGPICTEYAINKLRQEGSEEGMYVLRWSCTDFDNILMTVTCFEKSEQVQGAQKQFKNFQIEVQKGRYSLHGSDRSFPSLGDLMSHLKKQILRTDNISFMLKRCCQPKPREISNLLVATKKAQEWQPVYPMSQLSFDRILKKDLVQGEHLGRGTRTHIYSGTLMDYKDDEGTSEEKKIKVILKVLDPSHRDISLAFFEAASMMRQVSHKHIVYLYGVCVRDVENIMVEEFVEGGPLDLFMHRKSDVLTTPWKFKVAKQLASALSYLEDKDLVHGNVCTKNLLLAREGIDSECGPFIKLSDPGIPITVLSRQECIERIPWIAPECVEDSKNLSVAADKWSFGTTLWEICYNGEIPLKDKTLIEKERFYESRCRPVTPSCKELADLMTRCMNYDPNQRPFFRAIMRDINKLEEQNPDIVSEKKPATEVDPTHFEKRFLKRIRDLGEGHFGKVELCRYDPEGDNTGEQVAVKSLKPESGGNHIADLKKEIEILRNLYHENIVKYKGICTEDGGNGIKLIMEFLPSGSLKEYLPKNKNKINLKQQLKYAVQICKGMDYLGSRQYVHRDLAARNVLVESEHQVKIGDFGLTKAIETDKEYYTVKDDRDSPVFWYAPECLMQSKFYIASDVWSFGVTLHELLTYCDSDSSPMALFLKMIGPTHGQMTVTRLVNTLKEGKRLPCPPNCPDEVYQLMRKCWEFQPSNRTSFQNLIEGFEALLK

KIT(V559D,T670I) = KIT(V559D,T670I) (Homo sapiens, UniProt P10721, T670I/V559D)
KIT(V559D,T670I), sequence (P10721 whole entry V559D/T670I): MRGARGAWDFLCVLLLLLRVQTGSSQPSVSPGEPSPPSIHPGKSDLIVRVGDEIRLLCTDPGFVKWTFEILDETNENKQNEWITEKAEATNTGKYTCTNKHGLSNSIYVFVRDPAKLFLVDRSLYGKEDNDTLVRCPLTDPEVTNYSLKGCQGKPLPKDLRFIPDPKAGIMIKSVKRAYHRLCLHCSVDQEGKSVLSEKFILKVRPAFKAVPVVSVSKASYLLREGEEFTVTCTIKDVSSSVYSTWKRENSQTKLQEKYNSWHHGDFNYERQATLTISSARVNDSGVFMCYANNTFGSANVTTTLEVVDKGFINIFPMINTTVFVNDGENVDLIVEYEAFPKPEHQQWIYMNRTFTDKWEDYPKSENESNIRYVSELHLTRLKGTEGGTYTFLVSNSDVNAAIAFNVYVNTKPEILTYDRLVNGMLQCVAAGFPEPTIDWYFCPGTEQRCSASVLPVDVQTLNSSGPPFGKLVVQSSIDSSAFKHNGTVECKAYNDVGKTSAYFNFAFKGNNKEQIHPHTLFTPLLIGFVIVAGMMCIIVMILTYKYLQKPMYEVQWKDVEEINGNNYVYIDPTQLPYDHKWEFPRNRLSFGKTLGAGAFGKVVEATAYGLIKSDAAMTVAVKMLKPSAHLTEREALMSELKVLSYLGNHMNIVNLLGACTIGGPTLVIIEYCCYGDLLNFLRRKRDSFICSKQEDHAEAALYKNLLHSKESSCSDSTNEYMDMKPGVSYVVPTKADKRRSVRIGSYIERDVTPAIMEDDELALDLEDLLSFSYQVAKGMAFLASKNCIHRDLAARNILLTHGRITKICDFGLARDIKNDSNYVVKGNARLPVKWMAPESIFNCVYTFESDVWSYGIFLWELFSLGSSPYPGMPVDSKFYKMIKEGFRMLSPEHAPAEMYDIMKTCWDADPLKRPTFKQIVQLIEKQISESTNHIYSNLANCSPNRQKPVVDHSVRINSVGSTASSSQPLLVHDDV

PAK6 = PAK6 (Homo sapiens, UniProt Q9NQU5)
PAK6, sequence (Q9NQU5 whole entry): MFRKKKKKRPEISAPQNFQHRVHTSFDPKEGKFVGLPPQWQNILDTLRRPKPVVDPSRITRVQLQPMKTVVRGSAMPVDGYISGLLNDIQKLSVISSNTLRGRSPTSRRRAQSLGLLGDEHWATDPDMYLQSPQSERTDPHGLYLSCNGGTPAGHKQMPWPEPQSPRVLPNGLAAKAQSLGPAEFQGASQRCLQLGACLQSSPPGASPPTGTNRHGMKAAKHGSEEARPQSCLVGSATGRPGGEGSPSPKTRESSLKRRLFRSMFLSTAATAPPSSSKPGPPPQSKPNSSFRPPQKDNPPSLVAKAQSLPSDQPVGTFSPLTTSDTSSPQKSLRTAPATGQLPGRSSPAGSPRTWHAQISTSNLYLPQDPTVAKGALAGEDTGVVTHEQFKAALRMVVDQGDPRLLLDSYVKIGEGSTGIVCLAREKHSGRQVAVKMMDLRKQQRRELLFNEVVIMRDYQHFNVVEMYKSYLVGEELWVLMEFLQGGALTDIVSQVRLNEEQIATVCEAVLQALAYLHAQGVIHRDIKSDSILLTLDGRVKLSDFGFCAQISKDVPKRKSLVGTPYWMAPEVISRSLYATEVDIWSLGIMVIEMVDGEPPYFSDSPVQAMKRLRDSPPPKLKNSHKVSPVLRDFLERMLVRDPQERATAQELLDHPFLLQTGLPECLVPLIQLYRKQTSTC

[2] = molecular target: T3, RSK4(Kin.Dom.2-C-terminal) (Homo sapiens, UniProt Q9UK32)
T3 construct: gene RPS6KA6; Kin.Dom.2-C-terminal
T3 sequence (Q9UK32 whole entry): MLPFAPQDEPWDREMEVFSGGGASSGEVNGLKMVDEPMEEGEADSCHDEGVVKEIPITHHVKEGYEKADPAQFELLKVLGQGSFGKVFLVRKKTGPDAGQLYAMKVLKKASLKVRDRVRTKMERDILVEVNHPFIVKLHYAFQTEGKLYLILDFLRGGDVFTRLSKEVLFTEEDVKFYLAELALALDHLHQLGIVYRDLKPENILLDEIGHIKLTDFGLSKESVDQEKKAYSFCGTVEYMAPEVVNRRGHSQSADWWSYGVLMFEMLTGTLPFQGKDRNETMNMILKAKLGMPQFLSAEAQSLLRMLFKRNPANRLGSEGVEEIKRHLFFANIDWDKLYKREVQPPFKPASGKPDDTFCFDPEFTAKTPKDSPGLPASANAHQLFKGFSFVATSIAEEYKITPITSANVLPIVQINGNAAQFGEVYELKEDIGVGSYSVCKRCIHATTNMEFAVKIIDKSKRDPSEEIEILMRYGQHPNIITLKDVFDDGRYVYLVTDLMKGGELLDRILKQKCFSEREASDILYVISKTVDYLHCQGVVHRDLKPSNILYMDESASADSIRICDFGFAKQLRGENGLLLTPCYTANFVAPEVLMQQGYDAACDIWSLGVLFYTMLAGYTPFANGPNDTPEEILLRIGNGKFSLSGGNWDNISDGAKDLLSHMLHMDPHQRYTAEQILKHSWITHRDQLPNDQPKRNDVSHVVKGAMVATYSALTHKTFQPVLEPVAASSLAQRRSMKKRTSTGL

TEC = molecular target: T4, TEC (Homo sapiens, UniProt P42680)
T4 sequence (P42680 1-631): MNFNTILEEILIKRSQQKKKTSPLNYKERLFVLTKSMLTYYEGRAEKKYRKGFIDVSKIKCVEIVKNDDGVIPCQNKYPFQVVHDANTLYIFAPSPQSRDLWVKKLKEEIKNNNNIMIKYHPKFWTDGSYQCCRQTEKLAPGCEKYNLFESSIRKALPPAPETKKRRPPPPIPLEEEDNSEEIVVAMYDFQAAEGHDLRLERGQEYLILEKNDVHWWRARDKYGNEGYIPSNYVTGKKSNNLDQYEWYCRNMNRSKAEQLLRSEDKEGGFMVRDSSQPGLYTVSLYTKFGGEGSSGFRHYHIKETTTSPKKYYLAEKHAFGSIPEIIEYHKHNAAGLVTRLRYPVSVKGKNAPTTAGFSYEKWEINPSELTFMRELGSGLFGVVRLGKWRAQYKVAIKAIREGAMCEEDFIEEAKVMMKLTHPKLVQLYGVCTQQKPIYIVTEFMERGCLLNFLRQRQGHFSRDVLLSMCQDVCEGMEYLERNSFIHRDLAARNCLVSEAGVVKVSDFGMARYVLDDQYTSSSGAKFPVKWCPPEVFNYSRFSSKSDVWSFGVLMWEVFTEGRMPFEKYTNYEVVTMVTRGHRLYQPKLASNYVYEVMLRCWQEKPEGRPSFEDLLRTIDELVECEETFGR

MEK1 = molecular target: T5, MEK1 (Homo sapiens, UniProt Q02750)
T5 construct: gene MAP2K1
T5 sequence (Q02750 whole entry): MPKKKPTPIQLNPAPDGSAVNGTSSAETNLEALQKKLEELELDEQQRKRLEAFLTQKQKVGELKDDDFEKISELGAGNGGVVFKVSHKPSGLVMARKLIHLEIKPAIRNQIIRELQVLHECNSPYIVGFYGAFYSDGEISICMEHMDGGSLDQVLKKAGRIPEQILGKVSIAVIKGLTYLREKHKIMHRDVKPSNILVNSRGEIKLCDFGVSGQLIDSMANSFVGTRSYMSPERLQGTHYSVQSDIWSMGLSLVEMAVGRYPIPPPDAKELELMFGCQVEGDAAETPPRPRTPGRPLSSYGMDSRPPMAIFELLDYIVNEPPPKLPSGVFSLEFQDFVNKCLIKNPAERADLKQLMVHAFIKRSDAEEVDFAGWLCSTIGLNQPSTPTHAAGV

RIPK1 = molecular target: T6, RIPK1 (Homo sapiens, UniProt Q13546)
T6 sequence (Q13546 1-671): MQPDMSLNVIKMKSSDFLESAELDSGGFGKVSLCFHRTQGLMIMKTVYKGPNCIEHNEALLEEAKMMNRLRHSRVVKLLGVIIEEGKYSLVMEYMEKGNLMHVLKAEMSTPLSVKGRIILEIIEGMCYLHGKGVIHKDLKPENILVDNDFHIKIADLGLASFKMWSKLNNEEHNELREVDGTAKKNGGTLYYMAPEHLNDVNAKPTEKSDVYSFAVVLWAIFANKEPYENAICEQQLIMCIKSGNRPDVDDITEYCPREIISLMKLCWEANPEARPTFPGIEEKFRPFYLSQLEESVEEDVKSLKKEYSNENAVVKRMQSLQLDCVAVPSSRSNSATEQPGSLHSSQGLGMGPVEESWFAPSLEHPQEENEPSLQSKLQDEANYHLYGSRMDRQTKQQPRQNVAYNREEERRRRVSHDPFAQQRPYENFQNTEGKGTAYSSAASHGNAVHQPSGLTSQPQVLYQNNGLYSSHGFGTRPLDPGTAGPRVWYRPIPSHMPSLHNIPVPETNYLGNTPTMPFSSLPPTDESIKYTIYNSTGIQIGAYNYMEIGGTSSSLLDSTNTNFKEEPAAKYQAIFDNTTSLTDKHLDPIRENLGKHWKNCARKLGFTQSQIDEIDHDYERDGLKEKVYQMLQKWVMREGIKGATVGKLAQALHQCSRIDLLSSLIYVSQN

[3] = read-out: Percent control / Tirabrutinib
[4] = read-out: Percent control / Zanubrutinib
[5] = read-out: Percent control / Acalabrutinib
[6] = read-out: Percent control / Ibrutinib

SMILES: CC#CC(=O)N1CC[C@@H](n2c(=O)n(-c3ccc(Oc4ccccc4)cc3)c3c(N)ncnc32)C1 [Tirabrutinib]
- remaining binding at 0.3 µM (DDR2; [3]): 88%
- remaining binding at 0.3 µM [1, 3]: 88%
- remaining binding at 0.3 µM (KIT(V559D,T670I); [3]): 98%
- remaining binding at 0.3 µM (PAK6; [3]): 98%
- remaining binding at 0.3 µM [2, 3]: 93%
- remaining binding at 0.3 µM (TEC; [3]): 7.8%

SMILES: C=CC(=O)N1CCC([C@@H]2CCNc3c(C(N)=O)c(-c4ccc(Oc5ccccc5)cc4)nn32)CC1 [Zanubrutinib]
- remaining binding at 0.3 µM [1, 4]: 87%
- remaining binding at 0.3 µM (KIT(V559D,T670I); [4]): 62%
- remaining binding at 0.3 µM (MEK1; [4]): 4.1%
- remaining binding at 0.3 µM (PAK6; [4]): 91%
- remaining binding at 0.3 µM (RIPK1; [4]): 97%
- remaining binding at 0.3 µM [2, 4]: 82%
- remaining binding at 0.3 µM (TEC; [4]): 20%

SMILES: CC#CC(=O)N1CCC[C@H]1c1nc(-c2ccc(C(=O)Nc3ccccn3)cc2)c2c(N)nccn12 [Acalabrutinib]
- remaining binding at 0.3 µM (DDR2; [5]): 95%
- remaining binding at 0.3 µM [1, 5]: 64%
- remaining binding at 0.3 µM (KIT(V559D,T670I); [5]): 78%
- remaining binding at 0.3 µM (MEK1; [5]): 96%
- remaining binding at 0.3 µM (PAK6; [5]): 88%
- remaining binding at 0.3 µM (RIPK1; [5]): 93%
- remaining binding at 0.3 µM [2, 5]: 95%
- remaining binding at 0.3 µM (TEC; [5]): 4.1%

SMILES: C=CC(=O)N1CCC[C@@H](n2nc(-c3ccc(Oc4ccccc4)cc3)c3c(N)ncnc32)C1 [Ibrutinib]
- remaining binding at 0.3 µM (DDR2; [6]): 80%
- remaining binding at 0.3 µM (MEK1; [6]): 91%
- remaining binding at 0.3 µM (RIPK1; [6]): 93%
- remaining binding at 0.3 µM (TEC; [6]): 6%

Reference: publication PMC10004634 (PLOS ONE, 2023)
